Laboratory results: US10080779B2, “Method for increasing the expression of anti-microbial peptides by keratinocytes comprising administering a composition comprising IL-17, TNF-alpha and OSM” (Universite D'Angers, priority 2004, dated 2018)

Key:
NHEK [1] = assay: Gene expression profiling of NHEK using cDNA macroarrays; type: cell-based, human; settings: 10 ng/ml OSM 24 h
Description: Total RNA was isolated as described for PCR studies. DNase treatment, polyA^+ RNA enrichment, ^33P-labelled cDNA probe synthesis, purification and hybridization to custom Atlas array membranes (Bernard, Pedretti et al. 2002) were performed according to Clontech's recommendations (Clontech, Palo Alto, USA). Membranes were exposed for 5 days to a Molecular Dynamics Storm storage screen and scanned using a phosphorimager scanner (Molecular Dynamics Storm analyser, Amersham Biosciences, Uppsala, Sweden). After local background substraction, average signal intensity from duplicate spots was normalized for differences in probe labelling using the values obtained for housekeeping genes (Bernard et al., 2002). For each gene, the OSM-induced modulation was expressed as the relative expression value for stimulated versus control sample. Arbitrarily, only modulation above 2 was considered significant for confirmation using RT-real time PCR assay.

MAP kinase (ERK1/2) = assay: MAP kinase phosphorylation in NHEK (Western blot); type: cell-based, human; settings: NHEK stimulated with OSM
Description: For STAT3 and MAPK phosphorylation, NHEK were stimulated for 15 min in the presence of the indicated cytokine. Cells were lysed in SDS sample buffer (62.5 mM Tris-HCl pH 6.8, 2% SDS, 10% glycerol, 50 mM DTT, 0.1% bromophenol blue), sonicated and then submitted to SDS-PAGE and transferred onto an Immobilon membrane. The membranes were subsequently incubated overnight with the primary antibody, before being incubated with the appropriate peroxidase-labelled secondary antibody for 60 min. The reaction was visualized by chemiluminescence according to the manufacturer's instructions. Membranes were stripped in 0.1 M glycine pH 2.8 for 2 h and neutralized in 1 M Tris-HCl pH 7.6 before reblotting. For neutralizing experiments, NHEK were incubated with the appropriate antibodies for 2 h before stimulation.

NHEK [2] = assay: Cytokine measurement by ELISA in NHEK culture supernatants; type: cell-based, human; settings: 10 ng/ml, 96 h
Description: NHEK were obtained as previously described, from surgical samples of healthy breast skin (Boniface et al, 2005). NHEK were cultured to 80% of confluence and then starved for 24 h in Keratinocyte SFM without addition of growth factors before stimulation. Cells were stimulated with or without 10 ng/ml of recombinant IL-17A, OSM, TNFα, IL-22 and IL-1α alone or in combination (R&D systems Europe, Lille, France) during 24 h for mRNA quantification or 48 h to 96 h for protein quantification.
Levels of BD2, BD3 and CXCL8 were determined using Human ELISA development kit (Peprotech), and CXCL1 and CXCL5 with DuoSet reagents (R&D Systems Europe).

NHEK [3] = assay: S100 proteins expression in NHEK (Western blot); type: cell-based, human; settings: 10 ng/ml OSM, day 2 and day 4
Description: […] Cell lysis was performed with 50 mM Tris HCl pH 7.4, 150 mM NaCl, 1 mM EDTA, 1% Triton, 1% sodium deoxycholate, 0.1% SDS, 1 mM PMSF, 1 mM sodium orthovanadate, 1% protease inhibitors. S100A7, S100A8 and S100A9 were detected by immunochemistry as described above. Ponceau red staining was used to control loading homogeneity.

[4] = tested on: reconstituted human epidermis (RHE); assay: Reconstituted human epidermis model, histology and immunohistochemistry (OSM); type: cell-based
Description: For histological and immunohistochemical studies, RHE, grown for 12 days at the air-medium interface, were purchased from SkinEthic Laboratories (Nice, France). […] As recommended, RHE were grown for 1 day in SkinEthic growth medium prior to stimulation in the absence or presence of OSM for 4 days. They were then fixed in a balanced 10% formalin solution and embedded in paraffin. Four micron vertical sections were stained with heamatoxylin/eosin or with specific Ab and peroxidase-conjugated Antibodies, and counterstained with haematoxylin according to standard protocols (Rosdy, Bertino et al. 1997). Anti-K10 keratin and anti-filaggrin monoclonal Antibodies were from Lab Vision Corporation (Fremont, Calif., USA).

OSM: human recombinant oncostatin M, cytokine of the IL-6 family
Expression of CXCL1, CXCL5, CXCL8 and PDGF-A genes (NHEK [1]): increased the expression | Expression of calcium binding proteins S100A7, S100A8, S100A9, S100 neutrophil protein (NHEK [1]): marked increase | Expression of genes associated with keratinocyte differentiation (CK1, CK10, fillagrin, loricrin) (NHEK [1]): down regulates | Number of genes with decreased expression (NHEK [1]; array of 586 cDNAs): 38 genes | Number of genes with increased expression (NHEK [1]; array of 586 cDNAs): 36 genes | MAP kinase phosphorylation (MAP kinase (ERK1/2)): quickly increased the MAP kinase phosphorylation | BD3 production (NHEK [2]): significant increase | CXCL1, CXCL5, CXCL8 production, single cytokines (NHEK [2]): discrete effect | S100A7, S100A8, S100A9 protein expression (NHEK [3]): increased expression of studied proteins | Hyperplasia / overall thickness of RHE ([4]; 10 ng/ml OSM, 4 days): triggered the hyperplasia of the keratinocytes layers | Ki67 expression ([4]; RHE treated with OSM): not induced | Filaggrin and keratin 10 expression (immunohistochemistry) ([4]; RHE, 10 ng/ml OSM, 4 days): decrease of filaggrin and keratin 10 expression | S100A7 protein (immunohistochemistry) ([4]; RHE, 10 ng/ml OSM, 4 days): S100A7 protein up-regulation
